*1 amine or outer side, *2 acyl side, *3 side chain or, on linkers, in order; H or OH if unused. Where a SMILES comes first, the peptide text is derived from it. Bridges are numbered along the chain shown (N, C = ends). Side-chain parts run from the residue outwards. [ ]: non-standard residue; d: D form. The star is where a group is joined. X17 = O=C(O)CCCCCCCCCCCCCCCCCCC(=O)N[C@@H](CCC(=O)NCCOCCOCCOCCOCCOCCOCCOCCOCCOCCOCCOCCOCCOCC(=O)*)C(=O)O; Me3N+(CH2)2O(CH2)2O(CH2)2CO = C[N+](C)(C)CCOCCOCCC(=O)*; CH2CH2OCH2CH2OCH2CH2NMe3+ = C[N+](C)(C)CCOCCOCC*; Trp(7-Me) = Cc1cccc2c(C[C@H](N)C(=O)O)c[nH]c12; C20 diacid = O=C(O)CCCCCCCCCCCCCCCCCCC(=O)*; C18 diacid = O=C(O)CCCCCCCCCCCCCCCCC(=O)*; C16 diacid = O=C(O)CCCCCCCCCCCCCCC(=O)*; γGlu = O=C(O)[C@H](CCC(=O)[*:2])N[*:1]; 2Nal = N[C@@H](Cc1ccc2ccccc2c1)C(=O)O; AEF = NCCOc1ccc(C[C@H](N)C(=O)O)cc1; X26 = C[N+](C)(CCN[*:1])CC(=O)[*:2]; X2 = C[N+](C)(C)C[C@@H](CC(=O)O)N*; 3Pal = N[C@@H](Cc1cccnc1)C(=O)O; Lys(Me) = CNCCCC[C@H](N)C(=O)O; Pen = CC(C)(S)[C@H](N)C(=O)O; Suc = O=C(CCC(=O)[*:2])[*:1]; Thp = NC1(C(=O)O)CCOCC1; X1 = C[N+](C)(C)CCCCC*; AEEA = NCCOCCOCC(=O)O; Sar = CNCC(=O)O
Legend:
[1] = tested on: IL-23-stimulated phosphorylated STAT3 in peripheral blood mononuclear cells (PBMCs); assay: PBMC pSTAT3 Assay; format: cell-based; details: PBMCs from healthy donors; 30 min preincubation with peptide; IL-23 5 ng/mL for 30 min; phospho-STAT3 by MSD
Outline: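 Phospho-STAT3 quantified by Meso Scale assay in lysates of PBMCs exposed to IL-23 (5 ng/mL, 30 min, 37 °C) after 30 min peptide pretreatment. Cells were cryopreserved donor PBMCs activated 4 days with anti-CD3 plus IL-1β (100 ng/mL) and starved ~4 h; IC50 reported.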

IL-23R = biological target: T1, IL-23R (Homo sapiens, UniProt Q5VWK5); assay: IL23R Reporter Assay; format: cell-based; details: HEK293 cells containing IL-23R, IL-12Rβ1 and STAT-inducible firefly luciferase reporter; 10 ng/mL IL-23 (EC90); 5 h
T1 construct: HEK293 cells containing IL-23R, IL-12Rβ1 and a firefly luciferase reporter gene driven by a STAT-inducible promoter (Promega); host or cells: HEK293
T1 sequence (Q5VWK5 24-629): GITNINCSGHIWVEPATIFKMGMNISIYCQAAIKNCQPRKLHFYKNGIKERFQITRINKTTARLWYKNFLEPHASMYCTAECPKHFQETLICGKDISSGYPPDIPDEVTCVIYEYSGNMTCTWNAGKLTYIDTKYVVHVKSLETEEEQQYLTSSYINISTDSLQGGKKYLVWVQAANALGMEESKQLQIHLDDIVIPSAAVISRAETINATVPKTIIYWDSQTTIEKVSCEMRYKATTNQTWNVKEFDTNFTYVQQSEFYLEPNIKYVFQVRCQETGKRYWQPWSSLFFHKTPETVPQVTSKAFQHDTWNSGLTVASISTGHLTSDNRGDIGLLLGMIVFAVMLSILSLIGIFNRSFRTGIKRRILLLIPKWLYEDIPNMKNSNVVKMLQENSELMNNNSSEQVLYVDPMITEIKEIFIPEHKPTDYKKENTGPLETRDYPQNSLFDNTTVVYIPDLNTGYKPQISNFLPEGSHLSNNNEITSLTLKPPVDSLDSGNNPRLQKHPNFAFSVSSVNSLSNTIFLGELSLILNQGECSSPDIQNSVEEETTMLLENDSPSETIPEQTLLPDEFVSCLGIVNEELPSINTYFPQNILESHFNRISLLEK
Outline: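 IC50 values were fitted with a 4-parameter Hill equation to luciferase signal, scaled between IL-23-only wells (0% inhibition) and 30 μM reference inhibitor (100%). The readout was a STAT-inducible reporter in IL-23R/IL-12Rβ1 HEK293 cells, stimulated with added 10 ng/mL IL-23 (EC90) for 5 h at 37° C and developed with BioGlo.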

In the case of `CC(=O)N(C)CCCC[C@@H]1NC(=O)[C@H](Cc2c[nH]c3c(C)cccc23)NC(=O)[C@H]([C@@H](C)O)NC(=O)[C@H](CC(=O)N(C)C)NC(=O)[C@@H](NC(=O)COCCOCCNC(=O)C[N+](C)(C)CCNC(=O)COCCOCCNC(=O)CC[C@H](NC(=O)CCCCCCCCCCCCCCCCC(=O)O)C(=O)O)C(C)(C)SSC(C)(C)[C@@H](C(=O)N[C@@H](Cc2ccc(OCCOCCOCC[N+](C)(C)C)cc2)C(=O)N[C@@H](Cc2ccc3ccccc3c2)C(=O)NC2(C(=O)N[C@@H](CCCCN(C)C(C)=O)C(=O)N[C@@H](CC(N)=O)C(=O)N[C@@H](Cc3cccnc3)C(=O)N(C)CC(=O)N(C)C)CCOCC2)NC1=O` [compound 89, HOC18gEPEG2SP6PEG2CO-Pen(3)-N(N(Me)2)-T-7MeW-K(NMeAc)-Pen(3)-APEG3F-2Nal-THP-K(NMeAc)-N-3Pya-Sar-CON(Me)2] ({C18 diacid-γGlu-AEEA}-[X26][AEEA][Pen]D(NMe2)T[Trp(7-Me)][Lys(Me)](Ac)[Pen]Y(CH2CH2OCH2CH2OCH2CH2NMe3+)[2Nal][Thp][Lys(Me)](Ac)N[3Pal][Sar]-NMe2; disulfide 3-8), the IC50 [1] is reported as < 0.5 nM and the IC50 (IL-23R) is reported as < 50 nM.

With `C=CCOC(=O)CN1CCOc2ccc(cc2)C[C@H](NC(=O)[C@H]2NC(=O)[C@H](CCCCNC(C)=O)NC(=O)[C@H](Cc3c[nH]c4c(C)cccc34)NC(=O)[C@H]([C@@H](C)O)NC(=O)[C@H](CCCCNC(=O)COCCOCCNC(=O)COCCOCCNC(=O)CC[C@H](NC(=O)CCCCCCCCCCCCCCCCCC(=O)O)C(=O)O)NC(=O)[C@@H](NC(=O)CCOCCOCCNC(=O)COCCOCCNC(=O)COCCOCCNC(=O)CC[C@H](NC(=O)CCCCCCCCCCCCCCCCC(=O)O)C(=O)O)C(C)(C)SSC2(C)C)C(=O)N[C@@H](Cc2ccc3ccccc3c2)C(=O)NC2(CCOCC2)C(=O)N[C@@H]1C(=O)N[C@@H](CC(N)=O)C(=O)N[C@@H](Cc1cccnc1)C(=O)N(C)CC(N)=O` [compound 24, AEEP(PEG2PEG2gEC18OH)-Pen(3)-K(PEG2PEG2gEC18OH)-T-7MeW-K(Ac)-Pen(3)-AEF-2Nal-THP-E(OAll)-N-3Pya-Sar-CONH2] the IC50 [1] was 0.5 to 5 nM and the IC50 (IL-23R) was 50 to 500 nM.

For `CC(=O)NCCCC[C@@H]1NC(=O)[C@H](Cc2c[nH]c3c(C)cccc23)NC(=O)[C@H]([C@@H](C)O)NC(=O)[C@H](CCCCNC(=O)CCC(=O)N[C@H](CC(=O)O)C[N+](C)(C)C)NC(=O)[C@@H](NC(=O)[C@@H](CCCNC(=N)N)NC(C)=O)C(C)(C)SSC(C)(C)[C@@H](C(=O)N[C@@H](Cc2ccc(OCCNC(=O)COCCOCCNC(=O)COCCOCCNC(=O)CC[C@H](NC(=O)CCCCCCCCCCCCCCCCC(=O)O)C(=O)O)cc2)C(=O)N[C@@H](Cc2ccc3ccccc3c2)C(=O)NC2(C(=O)N[C@@H](CCC(=O)O)C(=O)N[C@@H](CC(N)=O)C(=O)N[C@@H](Cc3cccnc3)C(=O)N(C)CC(N)=O)CCOCC2)NC1=O` [compound 10, MeCO-r-Pen(3)-K(d)-T-7MeW-K(Ac)-Pen(3)-AEF(PEG2PEG2gEC18OH)-2Nal-THP-E-N-3Pya-Sar-CONH2] (Ac-[dR][Pen]K([Suc-X2])T[Trp(7-Me)]K(Ac)[Pen][AEF]([AEEA-AEEA-γGlu-C18 diacid])[2Nal][Thp]EN[3Pal][Sar]-NH2; disulfide 2-7), the IC50 [1] was 0.5 to 5 nM and the IC50 (IL-23R) was < 50 nM.

With `Cc1cccc2c(C[C@@H]3NC(=O)[C@H]([C@@H](C)O)NC(=O)[C@H](CC(N)=O)NC(=O)[C@@H](NC(=O)[C@@H](CCCNC(=N)N)CC(=O)COCCOCCNC(=O)COCCOCCNC(=O)CC[C@H](NC(=O)CCCCCCCCCCCCCCCCC(=O)O)C(=O)O)C(C)(C)SSC(C)(C)[C@@H](C(=O)N[C@@H](Cc4ccc(OCCN)cc4)C(=O)N[C@@H](Cc4ccc5ccccc5c4)C(=O)NC4(C(=O)N[C@@H](CCC(=O)O)C(=O)N[C@@H](CC(N)=O)C(=O)N[C@@H](Cc5cccnc5)C(=O)N(C)CC(N)=O)CCOCC4)NC(=O)[C@H](CCCCN(C)C(=O)CCCCCOCC[N+](C)(C)C)NC3=O)c[nH]c12` [compound 84, HOC18gEPEG2PEG2CO-r-Pen(3)-N-T-7MeW-K(NMecPEG3a)-Pen(3)-AEF-2Nal-THP-E-N-3Pya-Sar-CONH2] the IC50 [1] was < 0.5 nM and the IC50 (IL-23R) was < 50 nM.

Work on `CC(=O)N(C)CCCC[C@@H]1NC(=O)[C@H](Cc2c[nH]c3c(C)cccc23)NC(=O)[C@H]([C@@H](C)O)NC(=O)[C@H](CCCCNC(=O)COCCOCCNC(=O)COCCOCCNC(=O)CC[C@H](NC(=O)CCCCCCCCCCCCCCCCCCC(=O)O)C(=O)O)NC(=O)[C@@H](NC(=O)CCOCCOCC[N+](C)(C)C)C(C)(C)SSC(C)(C)[C@@H](C(=O)N[C@@H](Cc2ccc(OCCCCC[N+](C)(C)C)cc2)C(=O)N[C@@H](Cc2ccc3ccccc3c2)C(=O)NC2(C(=O)N[C@@H](CCCCN(C)C(C)=O)C(=O)N[C@@H](CC(N)=O)C(=O)N[C@@H](Cc3cccnc3)C(=O)N(C)CC(=O)N(C)C)CCOCC2)NC1=O` [compound 128, cPEG3aCO-Pen(3)-K(PEG2PEG2gEC20OH)-T-7MeW-K(NMeAc)-Pen(3)-TMAPF-2Nal-THP-K(NMeAc)-N-3Pya-Sar-CON(Me)2] ({Me3N+(CH2)2O(CH2)2O(CH2)2CO}-[Pen]K([AEEA-AEEA-γGlu-C20 diacid])T[Trp(7-Me)][Lys(Me)](Ac)[Pen]Y(X1)[2Nal][Thp][Lys(Me)](Ac)N[3Pal][Sar]-NMe2; disulfide 1-6) yielded an IC50 [1] of 0.5 to 5 nM and an IC50 (IL-23R) of 50 to 500 nM.

`CC(=O)N[C@H](CCCNC(=N)N)C(=O)N[C@@H]1C(=O)N[C@@H](CC(N)=O)C(=O)N[C@@H]([C@@H](C)O)C(=O)N[C@@H](Cc2c[nH]c3c(C)cccc23)C(=O)N[C@@H](CCCCNC(=O)COCCOCCNC(=O)COCCOCCNC(=O)CC[C@H](NC(=O)CCCCCCCCCCCCCCC(=O)O)C(=O)O)C(=O)N[C@H](C(=O)N[C@@H](Cc2ccc(OCCCCC[N+](C)(C)C)cc2)C(=O)N[C@@H](Cc2ccc3ccccc3c2)C(=O)NC2(C(=O)N[C@@H](CCC(=O)O)C(=O)N[C@@H](CC(N)=O)C(=O)N[C@@H](Cc3cccnc3)C(=O)N(C)CC(=O)N(C)C)CCOCC2)C(C)(C)SSC1(C)C` [compound 92, MeCO-r-Pen(3)-N-T-7MeW-K(PEG2PEG2gEC18OH)-Pen(3)-TMAPF-2Nal-THF-E-N-3Pya-Sar-CONH2] (Ac-[dR][Pen]NT[Trp(7-Me)]K([AEEA-AEEA-γGlu-C16 diacid])[Pen]Y(X1)[2Nal][Thp]EN[3Pal][Sar]-NMe2; disulfide 2-7) was tested, and the IC50 [1] was < 0.5 nM and the IC50 (IL-23R) was 50 to 500 nM.

`CC(=O)NCCCC[C@@H]1NC(=O)[C@H](Cc2c[nH]c3c(C)cccc23)NC(=O)[C@H]([C@@H](C)O)NC(=O)[C@H](CC(N)=O)NC(=O)[C@@H](NC(=O)O)CCCC[C@@H](C(=O)N[C@@H](Cc2ccc(OCCN)cc2)C(=O)N[C@@H](Cc2ccc3ccccc3c2)C(=O)NC2(C(=O)N[C@@H](CCC(=O)O)C(=O)N[C@@H](CC(N)=O)C(=O)N[C@@H](Cc3cccnc3)C(=O)N(C)CC(=O)C[C@@H](CCCCNC(=O)COCCOCCNC(=O)COCCOCCNC(=O)CC[C@H](NC(=O)CCCCCCCCCCCCCCCC(=O)O)C(=O)O)C(=O)NCCOCCOCC[N+](C)(C)C)CCOCC2)NC1=O` [compound 150, MeCO-Pen(3)-N-T-7MeW-K(Ac)-Pen(3)-AEF-2Nal-THP-E-N-3Pya-Sar-K(PEG2PEG2gEC18OH)-CONH(PEG3a)] was tested, and the IC50 [1] was ≥ 5 nM and the IC50 (IL-23R) was ≥ 500 nM.

In the case of `CC(=O)N(C)CCCC[C@@H]1NC(=O)[C@H](Cc2c[nH]c3c(C)cccc23)NC(=O)[C@H]([C@@H](C)O)NC(=O)[C@H](CC(=O)N(C)C)NC(=O)[C@@H](NC(=O)[C@@H](CCCCNC(=O)COCCOCCOCCOCCOCCOCCOCCOCCOCCOCCOCCOCCOCCNC(=O)CC[C@H](NC(=O)CCCCCCCCCCCCCCCCCCC(=O)O)C(=O)O)NC(=O)CCOCCOCC[N+](C)(C)C)C(C)(C)SSC(C)(C)[C@@H](C(=O)N[C@@H](Cc2ccc(OCCCCC[N+](C)(C)C)cc2)C(=O)N[C@@H](Cc2ccc3ccccc3c2)C(=O)NC2(C(=O)N[C@@H](CCCCN(C)C(C)=O)C(=O)N[C@@H](CC(N)=O)C(=O)N[C@@H](Cc3cccnc3)C(=O)N(C)CC(=O)N(C)C)CCOCC2)NC1=O` [compound 130, cPEG3aCO-k(PEG12gEC20OH)-Pen(3)-N(N(Me)2)-T-7MeW-K(NMeAc)-Pen(3)-TMAPF-2Nal-THP-K(NMeAc)-N-3Pya-Sar-CON(Me)2] ({Me3N+(CH2)2O(CH2)2O(CH2)2CO}-[dK](X17)[Pen]D(NMe2)T[Trp(7-Me)][Lys(Me)](Ac)[Pen]Y(X1)[2Nal][Thp][Lys(Me)](Ac)N[3Pal][Sar]-NMe2; disulfide 2-7), the IC50 [1] is reported as < 0.5 nM and the IC50 (IL-23R) is reported as < 50 nM.

— patent US20260250320A1, “LIPIDATED PEPTIDE INHIBITORS OF INTERLEUKIN-23 RECEPTOR” (Janssen Pharmaceutica NV, priority 2023, published 2026)
